Data taken from patent publication US8148391B2 (Cephalon, Inc., priority 2006, dated 2012).
Where two headings read alike, the source gives them in different places.

Key:
[1] = molecular target: T1, baculovirus-expressed ALK (Homo sapiens, UniProt Q9UM73); experiment: ALK Kinase Assay (ELISA-type, time-resolved fluorescence); type: biochemical
T1 construct: host or cells: baculovirus expression system
Description: (§1) Briefly, each 96-well plate was coated with 100 μL/well of 10 μg/mL substrate (phospholipase C-γ) in Tris-buffered saline (TBS). […] The reaction was initiated by adding enzyme (30 ng/ml ALK) and was allowed to proceed at 37° C. for 15 minutes. Detection of the phosphorylated product was performed by adding 100 μl/well of Eu-N1 labeled PT66 antibody (Perkin Elmer # AD0041).
(§2) Data analysis was performed using ActivityBase (IDBS, Guilford, UK). IC50 values were calculated by plotting percent inhibition versus log10 of the concentration of compound and fitting to the nonlinear regression sigmoidal dose-response (variable slope) equation in XLFit (IDBS, Guilford, UK).

[2] = molecular target: T2, c-Met (cytoplasmic domain) (Homo sapiens, UniProt P08581); experiment: c-Met Kinase Assay (same methods as for ALK, with modifications); type: biochemical
T2 construct: 10 ng/mL c-Met (cytoplasmic domain, Invitrogen Corporation #PV3143); purchased Invitrogen Corporation PV3143
T2 sequence (P08581 956-1390 limits assumed): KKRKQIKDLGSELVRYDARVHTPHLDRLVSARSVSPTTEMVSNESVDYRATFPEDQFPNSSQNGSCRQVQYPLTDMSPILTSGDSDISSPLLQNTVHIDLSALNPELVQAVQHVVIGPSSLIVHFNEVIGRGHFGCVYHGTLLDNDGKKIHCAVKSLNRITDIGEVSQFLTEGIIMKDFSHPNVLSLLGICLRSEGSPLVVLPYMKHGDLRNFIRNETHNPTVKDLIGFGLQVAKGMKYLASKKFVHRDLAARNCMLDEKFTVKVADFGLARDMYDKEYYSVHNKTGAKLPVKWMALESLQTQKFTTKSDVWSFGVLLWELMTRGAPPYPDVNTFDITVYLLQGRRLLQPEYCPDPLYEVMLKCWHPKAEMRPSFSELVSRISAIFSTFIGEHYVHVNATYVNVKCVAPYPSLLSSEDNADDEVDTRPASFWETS
Description: as §1, §2
Reactions were initiated with 10 ng/mL c-Met (cytoplasmic domain, Invitrogen Corporation #PV3143).

[3] = ALK kinase inhibition, 1 μM ATP (Km level), read-out: ALK Activity
[4] = c-Met kinase inhibition, 1 μM ATP (Km level), read-out: cMet Activity
[5] = ALK kinase inhibition, 1 μM ATP, read-out: ALK Activity
[6] = c-Met kinase inhibition, 1 μM ATP, read-out: cMet Activity
[7] = 1 μM ATP (Km level), 30 ng/ml ALK, 37° C., 15 minutes, read-out: ALK Activity (ALK kinase inhibition, IC50 class)
[8] = 1 μM ATP (Km level), 10 ng/mL c-Met, read-out: cMet Activity (c-Met kinase inhibition, IC50 class)
[9] = 1 μM ATP (Km level), read-out: ALK Activity (ALK Kinase Inhibition, IC50)
[10] = 1 μM ATP (Km level), read-out: cMet Activity (c-Met Kinase Inhibition, IC50)

T1 sequence (Q9UM73 19-1620): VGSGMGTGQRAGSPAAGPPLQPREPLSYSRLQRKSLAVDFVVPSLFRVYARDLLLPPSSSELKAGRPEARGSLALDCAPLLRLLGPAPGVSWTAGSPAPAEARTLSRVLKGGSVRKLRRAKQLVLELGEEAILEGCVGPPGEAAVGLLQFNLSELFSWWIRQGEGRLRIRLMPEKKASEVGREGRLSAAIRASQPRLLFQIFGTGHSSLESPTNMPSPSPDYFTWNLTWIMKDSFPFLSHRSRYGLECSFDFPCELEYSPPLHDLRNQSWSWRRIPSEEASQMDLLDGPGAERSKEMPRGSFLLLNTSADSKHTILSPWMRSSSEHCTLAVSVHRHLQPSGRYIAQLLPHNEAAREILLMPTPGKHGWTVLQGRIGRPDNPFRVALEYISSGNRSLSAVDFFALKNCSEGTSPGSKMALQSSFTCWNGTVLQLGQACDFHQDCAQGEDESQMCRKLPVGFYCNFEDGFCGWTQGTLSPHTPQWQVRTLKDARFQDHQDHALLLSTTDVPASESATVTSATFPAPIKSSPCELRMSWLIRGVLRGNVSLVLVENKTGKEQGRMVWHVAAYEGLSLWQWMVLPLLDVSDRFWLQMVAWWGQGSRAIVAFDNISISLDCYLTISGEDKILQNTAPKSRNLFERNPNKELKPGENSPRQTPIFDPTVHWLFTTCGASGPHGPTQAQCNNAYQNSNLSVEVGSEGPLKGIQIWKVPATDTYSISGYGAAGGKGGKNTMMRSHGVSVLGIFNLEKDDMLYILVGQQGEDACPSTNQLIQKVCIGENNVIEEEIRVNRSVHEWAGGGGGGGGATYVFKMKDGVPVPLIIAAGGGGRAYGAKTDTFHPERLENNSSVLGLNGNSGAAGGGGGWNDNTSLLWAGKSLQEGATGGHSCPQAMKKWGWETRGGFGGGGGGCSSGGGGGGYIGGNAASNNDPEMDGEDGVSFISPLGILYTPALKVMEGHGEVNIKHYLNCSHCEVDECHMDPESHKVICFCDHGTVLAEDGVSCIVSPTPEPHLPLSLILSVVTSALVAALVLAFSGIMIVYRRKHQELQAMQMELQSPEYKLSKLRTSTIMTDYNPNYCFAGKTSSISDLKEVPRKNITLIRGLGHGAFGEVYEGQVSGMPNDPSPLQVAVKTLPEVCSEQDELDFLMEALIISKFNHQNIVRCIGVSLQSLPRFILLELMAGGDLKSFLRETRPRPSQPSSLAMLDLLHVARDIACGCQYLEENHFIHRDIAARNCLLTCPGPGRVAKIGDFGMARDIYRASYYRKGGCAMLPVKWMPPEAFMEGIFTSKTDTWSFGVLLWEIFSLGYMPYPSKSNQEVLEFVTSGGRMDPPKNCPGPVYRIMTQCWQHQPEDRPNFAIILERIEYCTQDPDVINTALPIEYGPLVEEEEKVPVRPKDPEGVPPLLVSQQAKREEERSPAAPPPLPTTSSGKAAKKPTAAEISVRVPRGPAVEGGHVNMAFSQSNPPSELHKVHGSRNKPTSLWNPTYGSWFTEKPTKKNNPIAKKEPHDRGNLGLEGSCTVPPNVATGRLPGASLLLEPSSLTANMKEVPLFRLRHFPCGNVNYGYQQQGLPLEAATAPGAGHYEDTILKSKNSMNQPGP

“2-[5-Chloro-2-(1,4-dimethyl-5-oxo-2,3,4,5-tetrahydro-1H-benzo[e][1,4]diazepin-8-ylamino)-pyrimidin-4-ylamino]-N-methylbenzamide [Example 416]” showed an IC50 [1, 3] of less than 100 nM and an IC50 [2, 4] of less than 100 nM.

“2-[5-Chloro-2-(1-methyl-1,2,3,5-tetrahydro-benzo[e][1,4]oxazepin-7-ylamino)-pyrimidin-4-ylamino]-N-(2-hydroxy-ethyl)-benzamide and 2-{2-[5-Chloro-2-(1-methyl-1,2,3,5-tetrahydro-benzo[e][1,4]oxazepin-7-ylamino)-pyrimidin-4-ylamino]-phenyl}-oxazolidin-2-ol [Example 16]” showed an IC50 [1, 3] of less than 100 nM and an IC50 [2, 4] of less than 100 nM.

“2-[5-Chloro-2-(2-methyl-3-oxo-2,3,4,5-tetrahydro-1H-benzo[c]azepin-8-ylamino)-pyrimidin-4-ylamino]-N-methyl-benzamide and 2-[5-chloro-2-(2-methyl-3-oxo-2,3-dihydro-1H-benzo[c]azepin-8-ylamino)-pyrimidin-4-ylamino]-N-methyl-benzamide [Example 1798]” gave an IC50 [1, 5] of less than 100 nM and an IC50 [2, 6] of less than 100 nM.

“2-[5-Chloro-2-(3-methyl-4-oxo-2,3,4,5-tetrahydro-1H-benzo[d]azepin-7-ylamino)-pyrimidin-4-ylamino]-3,5,N-trimethyl-benzamide [Example 1818]” showed an IC50 [1, 5] of 1000 to 10000 nM and an IC50 [2, 6] of 100 to 1000 nM.

In the case of “2-[5-Chloro-2-(4-oxo-1,2,3,4,5,6-hexahydro-benzo[b][1,5]diazocin-8-ylamino)-pyrimidin-4-ylamino]-N-methyl-benzenesulfonamide [Example 1304]”, the IC50 [1, 7] is reported as less than 100 nM and the IC50 [2, 8] is reported as 100 to 1000 nM.

Compound “2-[5-Chloro-2-(6-methoxy-2-oxo-2,3,4,5-tetrahydro-1H-benzo[b]azepin-7-ylamino)-pyrimidin-4-ylamino]-N-methyl-benzamide [Example 3]” has an IC50 [1, 3] of less than 100 nM and an IC50 [2, 4] of 1000 to 10000 nM.

With “2-{5-Chloro-2-[1-methoxy-7-(4-methyl-piperazin-1-yl)-6,7,8,9-tetrahydro-5H-benzocyclohepten-2-ylamino]-pyrimidin-4-ylamino}-N,N-dimethyl-benzenesulfonamide [Example 912]” the IC50 [1, 9] was less than 100 nM and the IC50 [2, 10] was greater than 10000 nM.

In the case of “3-({2-[5-Chloro-2-(1-ethyl-5,5-dimethyl-2-oxo-2,3,4,5-tetrahydro-1H-1-benzazepin-8-ylamino)-pyrimidin-4-ylamino]-3-fluoro-phenyl}-methyl-amino)-propionitrile [Example 1265]”, the IC50 [1, 7] is reported as 100 to 1000 nM and the IC50 [2, 8] is reported as 1000 to 10000 nM.

Work on “3-{2-[2-(1-Acetyl-4-oxo-1,2,3,4,5,6-hexahydro-1,5-benzodiazepin-8-ylamino)-5-chloro-pyrimidin-4-ylamino]-phenoxy}-propionitrile [Example 1237]” yielded an IC50 [1, 7] of less than 100 nM and an IC50 [2, 8] of 100 to 1000 nM.

With “3-{5-Chloro-2-[3-(2-methoxy-ethyl)-2,3,4,5-tetrahydro-1H-benzo[d]azepin-7-ylamino]-pyrimidin-4-ylamino}-4-methyl-thiophene-2-carboxylic acid methylamide [Example 1363]” the IC50 [1, 7] was less than 100 nM and the IC50 [2, 8] was less than 100 nM.

Work on “5-Chloro-N(4)-(2-fluoro-6-methanesulfonyl-phenyl)-(2-fluoro-6-methanesulfonyl-phenyl)2,3,4,5-tetrahydro-1H-3-benzazepin-7-yl]-pyrimidine-2,4-diamine [Example 1262]” yielded an IC50 [1, 7] of 100 to 1000 nM and an IC50 [2, 8] of 1000 to 10000 nM.

Compound “5-Chloro-N*2*,N*4*-bis-(3-ethyl-2,3,4,5-tetrahydro-1H-benzo[d]azepin-7-yl)-pyridine-2,4-diamine [Example 199]” has an IC50 [1, 3] of less than 100 nM and an IC50 [2, 4] of 1000 to 10000 nM.

With “5-Chloro-N*2*-[1-methoxy-7-(2,2,2-trifluoro-ethylamino)-6,7,8,9-tetrahydro-5H-benzocyclohepten-2-yl]-N*4*-methyl-N*4*-[2-(propane-2-sulfonyl)-phenyl]-pyrimidine-2,4-diamine [Example 680]” the IC50 [1, 9] was less than 100 nM and the IC50 [2, 10] was greater than 10000 nM.

“5-Chloro-N*2*-[7-(2,2-difluoro-ethylamino)-1-methoxy-6,7,8,9-tetrahydro-5H-benzocyclohepten-2-yl]-N*4*-methyl-N*4*-[2-(propane-2-sulfonyl)-phenyl]-pyrimidine-2,4-diamine [Example 678]” gave an IC50 [1, 9] of less than 100 nM and an IC50 [2, 10] greater than 10000 nM.

“5-Chloro-N*4*-(2-ethyl-4-morpholin-4-yl-phenyl)-N*2*-[7-(2,2,2-trifluoro-ethylamino)-6,7,8,9-tetrahydro-5H-benzocyclohepten-2-yl]-pyrimidine-2,4-diamine [Example 652]” was tested, and the IC50 [1, 9] was less than 100 nM and the IC50 [2, 10] was greater than 10000 nM.

“7-[5-Chloro-4-(2-methoxy-4-morpholin-4-yl-phenylamino)-pyrimidin-2-ylamino]-1-ethyl-5,5-dimethyl-1,3,4,5-tetrahydro-benzo[b]azepin-2-one [Example 393]” gave an IC50 [1, 3] of less than 100 nM and an IC50 [2, 4] greater than 10000 nM.

For “8-[5-Chloro-4-(2-pyrazol-1-yl-phenylamino)-pyrimidin-2-ylamino]-3-methyl-1,3,4,5-tetrahydro-benzo[d]azepin-2-one [Example 1819]”, the IC50 [1, 5] was 1000 to 10000 nM and the IC50 [2, 6] was 1000 to 10000 nM.

For “8-{5-Chloro-4-[2-(2-morpholin-4-yl-ethoxy)-phenylamino]-pyrimidin-2-ylamino}-1,3,4,5-tetrahydro-benzo[b]azepin-2-one [Example 1464]”, the IC50 [1, 5] was 1000 to 10000 nM and the IC50 [2, 6] was greater than 10000 nM.

CCC(C)N1C2CCC1c1cc(Nc3ncc(Cl)c(N[C@@H]4CCCC[C@H]4NS(C)(=O)=O)n3)ccc1C2 (mixture of isomers) [Example 84, N-{(1R,2R)-2-[2-(12-sec-Butyl-12-aza-tricyclo[7.2.1.0*2,7*]dodeca-2(7),3,5-trien-4-ylamino)-5-chloro-pyrimidin-4-ylamino]-cyclohexyl}-methanesulfonamide] was tested, and the IC50 [1, 3] was less than 100 nM and the IC50 [2, 4] was 100 to 1000 nM.

Work on CS(=O)(=O)N[C@@H]1CCCC[C@H]1Nc1nc(Nc2ccc3c(c2)C2CCC3CN(C(=O)C(F)(F)F)C2)ncc1Cl (mixture of isomers) [Example 292, N-((1R,2R)-2-{5-Chloro-2-[10-(2,2,2-trifluoro-acetyl)-10-aza-tricyclo[6.3.2.0*2,7*]trideca-2,4,6-trien-4-ylamino]-pyrimidin-4-ylamino}-cyclohexyl)-methanesulfonamide] yielded an IC50 [1, 3] of less than 100 nM and an IC50 [2, 4] of 1000 to 10000 nM.

NC(=O)C1C2C=CC(C2)C1Nc1nc(Nc2ccc3c(c2)CCN(CC(O)C(F)(F)F)CC3)ncc1Cl (mixture of isomers) [Example 334, (2-exo, 3-exo)-3-{5-Chloro-2-[3-((R)-3,3,3-trifluoro-2-hydroxy-propyl)-2,3,4,5-tetrahydro-1H-benzo[d]azepin-7-ylamino]-pyrimidin-4-ylamino}-bicyclo[2.2.1]hept-5-ene-2-carboxylic acid amide] was tested, and the IC50 [1, 3] was less than 100 nM and the IC50 [2, 4] was 100 to 1000 nM.

In the case of COC(CN1CCc2ccc(Nc3ncc(Cl)c(NC4C5C=CC(C5)C4C(N)=O)n3)cc2CC1)C(F)(F)F (mixture of isomers) [Example 338, (2-exo, 3-exo)-3-{5-Chloro-2-[3-((S)-3,3,3-trifluoro-2-methoxy-propyl)-2,3,4,5-tetrahydro-1H-benzo[d]azepin-7-ylamino]-pyrimidin-4-ylamino}-bicyclo[2.2.1]hept-5-ene-2-carboxylic acid amide], the IC50 [1, 3] is reported as less than 100 nM and the IC50 [2, 4] is reported as 100 to 1000 nM.

For COc1c(Nc2ncc(Cl)c(N[C@@H]3CCCC[C@H]3NS(C)(=O)=O)n2)ccc2c1CCC(N1CCOCC1)CC2 (mixture of isomers) [Example 884, N-{(1R,2R)-2-[5-Chloro-2-(1-methoxy-7-morpholin-4-yl-6,7,8,9-tetrahydro-5H-benzocyclohepten-2-ylamino)-pyrimidin-4-ylamino]-cyclohexyl}-methanesulfonamide], the IC50 [1, 9] was less than 100 nM and the IC50 [2, 10] was greater than 10000 nM.

COc1c(Nc2ncc(Cl)c(NC3CCCCNC3=O)n2)ccc2c1CCC(N1CCOCC1)CC2 (mixture of isomers) [Example 902, 3-[5-Chloro-2-(1-methoxy-7-morpholin-4-yl-6,7,8,9-tetrahydro-5H-benzocyclohepten-2-ylamino)-pyrimidin-4-ylamino]-azepan-2-one] showed an IC50 [1, 9] of 100 to 1000 nM and an IC50 [2, 10] greater than 10000 nM.

COc1c(Nc2ncc(Cl)c(Nc3ccccc3S(=O)(=O)N3CCC(O)C3)n2)ccc2c1CCC(N1CCOCC1)CC2 (mixture of isomers) [Example 906, 1-{2-[5-Chloro-2-(1-methoxy-7-morpholin-4-yl-6,7,8,9-tetrahydro-5H-benzocyclohepten-2-ylamino)-pyrimidin-4-ylamino]-benzenesulfonyl}-pyrrolidin-3-ol] gave an IC50 [1, 9] of less than 100 nM and an IC50 [2, 10] of 1000 to 10000 nM.

Work on COc1c(Nc2ncc(Cl)c(Nc3ccccc3S(=O)(=O)N(C)C)n2)ccc2c1CCC(N1CCCC(O)C1)CC2 (mixture of isomers) [Example 907, 2-{5-Chloro-2-[7-(3-hydroxy-piperidin-1-yl)-1-methoxy-6,7,8,9-tetrahydro-5H-benzocyclohepten-2-ylamino]-pyrimidin-4-ylamino}-N,N-dimethyl-benzenesulfonamide] yielded an IC50 [1, 9] of less than 100 nM and an IC50 [2, 10] greater than 10000 nM.
